Legend:
Rattus norvegicus [1] = organism: Rattus norvegicus; test: Effective dose required to produce an increase in dP/dt5 by 1500 mmHg/s in rats; type: functional
Felis catus [2] = organism: Felis catus; test: Effective dose required to produce an increase in dP/dt5 by 1500 mmHg/s in cats; type: functional
Rattus norvegicus [3] = test: Maximum increase in dP/dt when administered intravenously in rats at 3 mg/kg dose.; type: functional; settings: route intravenous
Canis familiaris [4] = test: Maximum increase in dP/dt when administered intravenously in dogs at 0.3 mg/kg dose.; type: functional, Canis lupus familiaris; settings: route intravenous
Canis familiaris [5] = test: Amount of time during which increase in administered orally in conscious dogs at 1 mg/kg; type: functional, Canis lupus familiaris; settings: route oral
Rattus norvegicus [6] = test: Maximum increase in dP/dt when administered intravenously in rats at 10 mg/kg dose.; type: functional; parameters: unit not given here; settings: route intravenous
Canis familiaris [7] = organism: Canis familiaris; test: Effective dose required to produce an increase in dP/dt5 by 1500 mmHg/s in dogs; type: functional, Canis lupus familiaris
Rattus norvegicus [8] = test: Maximum increase in dP/dt when administered intravenously in rats at 1 mg/kg dose.; type: functional; parameters: unit not given here; settings: route intravenous
Canis familiaris [9] = test: Time after which maximum increase in contractility was observed when administered orally in conscious dogs at 1 mg/kg; type: functional, Canis lupus familiaris; settings: route oral
Felis catus [10] = test: Maximum increase in dP/dt when administered intravenously in cats at 0.1 mg/kg dose.; type: functional; settings: route intravenous
Rattus norvegicus [11] = test: Maximum increase in dP/dt when administered intravenously in rats at 0.1 mg/kg dose.; type: functional; settings: route intravenous
Rattus norvegicus [12] = test: Maximum increase in dP/dt when administered intravenously in rats at […] dose.; type: functional
Canis familiaris [13] = test: Maximum increase in dP/dt when administered intravenously in dogs at 1 mg/kg dose.; type: functional, Canis lupus familiaris; settings: route intravenous
Felis catus [14] = test: Maximum increase in dP/dt when administered intravenously in cats at 3 mg/kg.; type: functional; settings: route intravenous

Row | SMILES | ED1.5 (Rattus norvegicus [1]) [mg/kg] | ED1.5 (Felis catus [2]) [mg/kg] | other results
1 | CC1(C)C(=O)Nc2cc3[nH]c(C(F)(F)F)nc3cc21 | 0.13 | 0.08 | Max (Rattus norvegicus [3]): 2.3 mHg s-1
2 | CN1C(=O)C(C)(C)c2cc3nc(-c4ccncc4)n(C)c3cc21 | >3 |  | 
3 | Cn1c(O)nc2cc3[nH]c(O)nc3cc21 | >3 |  | 
4 | CC1(C)C(=O)Nc2cc3nc(O)oc3cc21 | >3 |  | 
5 | CCCn1c(O)nc2cc3[nH]c(-c4ccncc4)nc3cc21 | 1 |  | Max (Rattus norvegicus [3]): 1.6 mHg s-1
6 | CCn1c(O)nc2cc3[nH]c(-c4ccnnc4)nc3cc21 | 0.04 | 0.02 | Max (Rattus norvegicus [3]): 3.2 mHg s-1
7 | CC1(C)C(=O)Nc2cc3[nH]cnc3cc21 | 0.19 | 0.13 | Max (Rattus norvegicus [3]): 3.2 mHg s-1
8 | Oc1nc2cc3[nH]c(-c4ccncc4)nc3cc2s1 | 0.2 |  | 
9 | Oc1nc2cc3nc(-c4ccncc4)[nH]c3cc2o1 | 0.52 | 0.06 | Max (Canis familiaris [4]): 2.6 mHg/s; Duration (Canis familiaris [5]): 0 h; Max (Rattus norvegicus [6]): 4.1; ED1.5 (Canis familiaris [7]): 0.12 mg/kg
10 | Cn1c(O)nc2cc3[nH]c(-c4ccnnc4)nc3cc21 | 0.19 |  | Duration (Canis familiaris [5]): 0 h; Max (Rattus norvegicus [8]): 2.7
11 | Cn1c(O)nc2cc3c(cc21)C(C)(C)C(=O)N3 | 0.03 | 0.02 | Duration (Canis familiaris [5]): > 5 h; Time (Canis familiaris [9]): 30 min; Max (Felis catus [10]): 2.1 mmHg s-1; Max (Rattus norvegicus [11]): 2.4 mmHg s-1
12 | C=C(C)c1nc2cc3c(cc2[nH]1)C(C)(C)C(=O)N3 | >3 |  | 
13 | Oc1nc2cc3[nH]c(-c4ccncc4)nc3cc2[nH]1 | >3 |  | 
14 | CCCc1nc2cc3nc(O)oc3cc2[nH]1 | >3 |  | 
15 | COc1cc([S+](C)[O-])ccc1-c1nc2cc3c(cc2[nH]1)C(C)(C)C(=O)N3 (stereo not given) | >3 |  | 
16 | CC1(C)C(=O)Nc2cc3[nH]c(-c4cc5ccccc5[nH]4)nc3cc21 | >3 |  | 
17 | CC1(C)C(=O)Nc2cc3[nH]c(C4CCCCC4)nc3cc21 | >3 |  | 
18 | CC1(C)C(=O)Nc2cc3[nH]c(O)cc3cc21 | 0.11 |  | Max (Rattus norvegicus [12]): 2 mmHg s-1
19 | CC1(C)C(=O)Nc2cc3[nH]c(N)nc3cc21 | >3 |  | 
20 | COc1cc(S(C)(=O)=O)ccc1-c1nc2cc3c(cc2[nH]1)C(C)(C)C(=O)N3 | 2 |  | Max (Rattus norvegicus [3]): 1.8 mHg s-1
21 | CN1C(=O)C(C)(C)c2cc3[nH]c(-c4ccncc4)nc3cc21 | >3 |  | 
22 | CC1(C)C(=O)Nc2cc3[nH]c(-c4ccnnc4)cc3cc21 |  | 0.01 | 
23 | CC1(C)C(=O)Nc2cc3[nH]c(-c4ccc(O)nn4)nc3cc21 | 0.07 |  | Max (Rattus norvegicus [3]): 3.3 mHg s-1
24 | CC1(C)C(=O)Nc2cc3[nH]c(-c4ccnc5ccccc45)nc3cc21 | 2 |  | Max (Rattus norvegicus [3]): 1.8 mHg s-1
25 | Cc1nc2cc3c(cc2[nH]1)C(C)(C)C(=O)N3 | 0.48 | 0.17 | Duration (Canis familiaris [5]): 3 h; Max (Canis familiaris [13]): 2.2 mHg s-1; Max (Rattus norvegicus [6]): 3.5; Max (Felis catus [14]): 2.8 mHg/s; ED1.5 (Canis familiaris [7]): 0.46 mg/kg; Time (Canis familiaris [9]): 30 min
26 | CC1(C)C(=O)Nc2cc3[nH]c(-c4ccc(-n5ccnc5)cc4)cc3cc21 | >3 |  | 
27 | CC1(C)C(=O)Nc2cc3[nH]c(-c4ccncc4)nc3cc21 [ADIBENDAN] | 0.01 | 0.01 | Duration (Canis familiaris [5]): > 6 h; Max (Canis familiaris [13]): 2 mHg s-1; ED1.5 (Canis familiaris [7]): 0.2 mg/kg; Time (Canis familiaris [9]): 45 min; Max (Rattus norvegicus [11]): 3.7 mmHg s-1
28 | COc1ccc(-c2nc3cc(C4=NNC(=O)CC4C)ccc3[nH]2)cc1 (stereo not given) [PIMOBENDAN] | 1.3 | 0.6 | Duration (Canis familiaris [5]): 6 h; Max (Canis familiaris [13]): 1.3 mHg s-1; ED1.5 (Canis familiaris [7]): 1.1 mg/kg; Time (Canis familiaris [9]): 30 min; Max (Rattus norvegicus [3]): 2 mHg s-1
